Measured values from ChEMBL document CHEMBL1137125, “Rhodanine-3-acetic acid derivatives as inhibitors of fungal protein mannosyl transferase 1 (PMT1)” (Bioorg Med Chem Lett, 2004).
pIC50: −log10 of the molar value.

Legend:
[1] = biological target: T1, Dolichyl-phosphate-mannose--protein mannosyltransferase 1 (Candida albicans (strain SC5314 / ATCC MYA-2876) (Yeast), UniProt O74189); assay: In vitro inhibition of Candida albicans protein mannosyl transferase 1
T1 sequence (O74189 whole entry): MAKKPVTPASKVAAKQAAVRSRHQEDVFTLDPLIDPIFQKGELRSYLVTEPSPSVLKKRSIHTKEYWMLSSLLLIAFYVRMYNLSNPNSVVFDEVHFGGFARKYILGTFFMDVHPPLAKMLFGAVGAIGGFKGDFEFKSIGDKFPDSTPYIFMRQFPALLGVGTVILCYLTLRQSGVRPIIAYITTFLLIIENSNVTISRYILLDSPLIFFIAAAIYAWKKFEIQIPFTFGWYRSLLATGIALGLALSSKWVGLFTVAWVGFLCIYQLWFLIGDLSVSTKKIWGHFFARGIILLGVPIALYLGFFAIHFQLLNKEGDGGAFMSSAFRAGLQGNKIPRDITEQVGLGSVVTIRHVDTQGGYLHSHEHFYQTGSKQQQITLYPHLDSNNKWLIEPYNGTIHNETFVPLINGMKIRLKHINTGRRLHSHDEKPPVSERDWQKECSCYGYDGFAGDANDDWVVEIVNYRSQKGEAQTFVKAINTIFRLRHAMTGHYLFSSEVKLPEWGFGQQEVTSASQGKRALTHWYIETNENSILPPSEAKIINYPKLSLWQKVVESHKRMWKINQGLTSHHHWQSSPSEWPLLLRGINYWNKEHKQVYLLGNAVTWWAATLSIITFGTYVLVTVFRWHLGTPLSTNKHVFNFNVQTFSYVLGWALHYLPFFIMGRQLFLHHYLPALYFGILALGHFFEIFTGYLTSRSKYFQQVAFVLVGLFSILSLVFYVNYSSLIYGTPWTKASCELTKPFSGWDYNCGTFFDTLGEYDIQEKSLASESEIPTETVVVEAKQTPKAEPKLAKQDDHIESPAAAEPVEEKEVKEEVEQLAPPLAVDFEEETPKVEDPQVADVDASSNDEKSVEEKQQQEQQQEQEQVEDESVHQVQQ

[2] = system: Candida albicans; assay: In vitro inhibition of Candida albicans G418-sensitive proliferation; type: functional, organism-based

O=C(O)CN1C(=O)/C(=C/c2ccc(OCc3ccccc3)c(OCc3ccccc3)c2)SC1=S
pIC50 [1]: 5.64 | pIC50 [2]: 5.52

O=C(O)CN1C(=O)/C(=C/c2ccc(OCc3ccccc3)c(OCc3cccc(Cl)c3)c2)SC1=S
pIC50 [1]: 5.40 | pIC50 [2]: 5.40

O=C(O)CN1C(=O)/C(=C/c2ccc(OCCCc3ccccc3)c(OCc3ccccc3)c2)SC1=S
pIC50 [1]: 5.85 | pIC50 [2]: 5.62

O=C(O)CN1C(=O)/C(=C/c2ccc(OCc3ccc(F)cc3F)c(OCc3ccc(F)cc3F)c2)SC1=S
pIC50 [1]: 5.30 | pIC50 [2]: < 4.00

CS(=O)(=O)c1ccc(COc2cc(/C=C3\SC(=S)N(CC(=O)O)C3=O)ccc2OCc2ccccc2)cc1
pIC50 [1]: 4.70 | pIC50 [2]: < 4.00

C[C@H](COc1ccc(/C=C2\SC(=S)N(CC(=O)O)C2=O)cc1O[C@@H](c1ccccc1)C(F)(F)F)c1ccccc1
pIC50 [1]: 5.46 | pIC50 [2]: 6.26

CCCN(CCC)C(=O)C(Oc1cc(/C=C2\SC(=S)N(CC(=O)O)C2=O)ccc1OCCc1ccccc1)c1ccccc1 (centres undefined)
pIC50 [1]: 6.10 | pIC50 [2]: 7.30

CC(Oc1cc(/C=C2\SC(=S)N(CC(=O)O)C2=O)ccc1OCCc1ccccc1)c1ccccc1 (centres undefined)
pIC50 [1]: 6.70 | pIC50 [2]: 7.70

O=C(O)CN1C(=O)/C(=C/c2ccc(OCc3ccccc3)c(OCc3ccc(C(F)(F)F)cc3)c2)SC1=S
pIC50 [1]: 4.96 | pIC50 [2]: < 4.00

C[C@@H](COc1ccc(/C=C2\SC(=S)N(CC(=O)O)C2=O)cc1O[C@H](c1ccccc1)C(F)(F)F)c1ccccc1
pIC50 [1]: 6.40 | pIC50 [2]: 8.00

O=C(O)CN1C(=O)/C(=C/c2ccc(OCc3ccc(F)cc3F)c(OCc3ccccc3)c2)SC1=S
pIC50 [1]: 5.19 | pIC50 [2]: 5.68

O=C(O)CN1C(=O)/C(=C\c2ccc(OCc3ccccc3)c(OCc3ccc(OC(F)(F)F)cc3)c2)SC1=S
pIC50 [1]: 5.70 | pIC50 [2]: 6.30

CC[C@H](COc1ccc(/C=C2\SC(=S)N(CC(=O)O)C2=O)cc1O[C@H](c1ccccc1)C(F)(F)F)c1ccccc1
pIC50 [1]: 6.30 | pIC50 [2]: 7.70

Cc1ccc(COc2ccc(/C=C3\SC(=S)N(CC(=O)O)C3=O)cc2OCc2ccccc2)cc1
pIC50 [1]: 5.57 | pIC50 [2]: 6.22

COc1ccc(COc2ccc(/C=C3\SC(=S)N(CC(=O)O)C3=O)cc2OCc2ccccc2)cc1
pIC50 [1]: 5.47 | pIC50 [2]: 5.52

O=C(O)CN1C(=O)/C(=C/c2ccc(OCCc3ccc(Cl)cc3)c(OCc3ccccc3)c2)SC1=S
pIC50 [1]: 5.80 | pIC50 [2]: 7.30

O=C(O)CN1C(=O)/C(=C/c2ccc(OCc3ccc(C(F)(F)F)cc3)c(OCc3ccccc3)c2)SC1=S
pIC50 [1]: 5.72 | pIC50 [2]: 5.40

O=C(O)CN1C(=O)/C(=C/c2ccc(OCc3ccccc3)c(OCc3cccnc3)c2)SC1=S
pIC50 [1]: 4.37 | pIC50 [2]: < 4.00

O=C(O)CN1C(=O)/C(=C/c2cccc(OCc3ccccc3)c2)SC1=S
pIC50 [1]: 4.30

O=C(O)CN1C(=O)/C(=C/c2ccc(OCCc3cc(F)cc(F)c3)c(OCc3ccccc3)c2)SC1=S
pIC50 [1]: 6.07 | pIC50 [2]: 6.96

O=C(O)CN1C(=O)/C(=C/c2ccc(OCc3ccc(F)cc3)c(OCc3ccc(F)cc3)c2)SC1=S
pIC50 [1]: 5.30 | pIC50 [2]: 5.28

O=C(O)CN1C(=O)/C(=C/c2ccc(OCc3ccccc3)c(OCc3ccc(F)cc3F)c2)SC1=S
pIC50 [1]: 5.07 | pIC50 [2]: 5.22

C[C@H](Oc1cc(/C=C2\SC(=S)N(CC(=O)O)C2=O)ccc1OC[C@H](C)c1ccccc1)c1ccccc1
pIC50 [1]: 6.30 | pIC50 [2]: 8.70

O=C(O)CN1C(=O)/C(=C/c2ccc(OCCc3ccc(OC(F)(F)F)cc3)c(OCc3ccccc3)c2)SC1=S
pIC50 [1]: 5.89 | pIC50 [2]: 6.70

O=C(O)CN1C(=O)/C(=C/c2ccc(OCc3ccccc3)c(OCc3cccc(C(F)(F)F)c3)c2)SC1=S
pIC50 [1]: 4.96 | pIC50 [2]: < 4.00

O=C(O)CN1C(=O)/C(=C/c2ccc(OCc3ccccc3)cc2)SC1=S
pIC50 [1]: 4.26 | pIC50 [2]: 4.30

O=C(O)CN1C(=O)/C(=C/c2ccc(OCCc3ccc(F)cc3F)c(OCc3ccccc3)c2)SC1=S
pIC50 [1]: 5.40 | pIC50 [2]: 7.30

COc1cccc(COc2ccc(/C=C3\SC(=S)N(CC(=O)O)C3=O)cc2OCc2cccc(OC)c2)c1
pIC50 [1]: 4.82 | pIC50 [2]: < 4.00

O=C(O)CN1C(=O)/C(=C/c2ccc(OCCc3ccccc3)c(OC(C(=O)N3CCOCC3)c3ccccc3)c2)SC1=S (centres undefined)
pIC50 [1]: 6.00 | pIC50 [2]: 4.37

C[C@@H](COc1ccc(/C=C2\SC(=S)N(CC(=O)O)C2=O)cc1O[C@@H](c1ccccc1)C(F)(F)F)c1ccccc1
pIC50 [1]: 5.74 | pIC50 [2]: 6.70

O=C(O)CN1C(=O)/C(=C/c2ccc(OCc3ccc(F)c(F)c3)c(OCc3ccccc3)c2)SC1=S
pIC50 [1]: 5.70 | pIC50 [2]: 5.82

CS(=O)(=O)c1ccc(COc2ccc(/C=C3\SC(=S)N(CC(=O)O)C3=O)cc2OCc2ccccc2)cc1
pIC50 [1]: 5.49 | pIC50 [2]: < 4.00

O=C(O)CN1C(=O)/C(=C/c2ccc(OCCc3ccccc3)c(OC(CO)c3ccccc3)c2)SC1=S (centres undefined)
pIC50 [1]: 6.77 | pIC50 [2]: 6.52

COc1cccc(COc2cc(/C=C3\SC(=S)N(CC(=O)O)C3=O)ccc2OCc2ccccc2)c1
pIC50 [1]: 5.12 | pIC50 [2]: < 4.00

CC[C@@H](COc1ccc(/C=C2\SC(=S)N(CC(=O)O)C2=O)cc1O[C@H](c1ccccc1)C(F)(F)F)c1ccccc1
pIC50 [1]: 6.46 | pIC50 [2]: 7.70

C[C@@H](COc1ccc(/C=C2\SC(=S)N(CC(=O)O)C2=O)cc1OCc1ccccc1)c1ccccc1
pIC50 [1]: 5.74 | pIC50 [2]: 7.15

O=C(O)CN1C(=O)/C(=C/c2ccc(OCc3ccccc3)c(OCc3ccncc3)c2)SC1=S
pIC50 [1]: 4.52 | pIC50 [2]: < 4.00

O=C(O)CN1C(=O)/C(=C/c2ccc(OCc3ccccc3)c(OCc3ccc(Cl)cc3)c2)SC1=S
pIC50 [1]: 5.15

O=C(O)CN1C(=O)/C(=C/c2ccc(OCc3ccc(Cl)cc3)c(OCc3ccccc3)c2)SC1=S
pIC50 [1]: 6.02 | pIC50 [2]: 6.22

O=C(O)CN1C(=O)/C(=C/c2ccc(OCCc3ccc(C(F)(F)F)cc3)c(OCc3ccccc3)c2)SC1=S
pIC50 [1]: 5.40 | pIC50 [2]: 6.74

NC(=O)C(Oc1cc(/C=C2\SC(=S)N(CC(=O)O)C2=O)ccc1OCCc1ccccc1)c1ccccc1 (centres undefined)
pIC50 [1]: 6.46 | pIC50 [2]: 5.15

CCC(Oc1cc(/C=C2\SC(=S)N(CC(=O)O)C2=O)ccc1OCCc1ccccc1)c1ccccc1 (centres undefined)
pIC50 [1]: 6.02 | pIC50 [2]: 7.70

C[C@H](COc1ccc(/C=C2\SC(=S)N(CC(=O)O)C2=O)cc1O[C@H](c1ccccc1)C(F)(F)F)c1ccccc1
pIC50 [1]: 6.22 | pIC50 [2]: 7.70

C[C@H](COc1ccc(/C=C2\SC(=S)N(CC(=O)O)C2=O)cc1OCc1ccccc1)c1ccccc1
pIC50 [1]: 5.02 | pIC50 [2]: 6.46

O=C(O)CN1C(=O)/C(=C/c2ccc(OCCc3ccc(F)cc3)c(OCc3ccccc3)c2)SC1=S
pIC50 [1]: 5.92 | pIC50 [2]: 7.30

O=C(O)CN1C(=O)/C(=C/c2ccc(OCCc3ccccc3)c(OCc3ccccc3)c2)SC1=S
pIC50 [1]: 5.82 | pIC50 [2]: 6.30

CC(C)C(Oc1cc(/C=C2\SC(=S)N(CC(=O)O)C2=O)ccc1OCCc1ccccc1)c1ccccc1 (centres undefined)
pIC50 [1]: 6.15 | pIC50 [2]: 7.52

C[C@@H](COc1ccc(/C=C2\SC(=S)N(CC(=O)O)C2=O)cc1O[C@H](C)c1ccccc1)c1ccccc1
pIC50 [1]: 5.74 | pIC50 [2]: 7.52

O=C(O)CN1C(=O)/C(=C/c2ccc(OCc3c(F)cccc3F)c(OCc3c(F)cccc3F)c2)SC1=S
pIC50 [1]: 4.70 | pIC50 [2]: < 4.00

O=C(O)CN1C(=O)/C(=C/c2ccc(OCc3cccc(C(F)(F)F)c3)c(OCc3ccccc3)c2)SC1=S
pIC50 [2]: 6.19

O=C(O)CN1C(=O)/C(=C/c2ccc(OCc3ccccc3)c(OCc3ccc(F)c(F)c3)c2)SC1=S
pIC50 [1]: 5.38 | pIC50 [2]: < 4.00
